In the supplement of paper PMC10307832:

Columns and labels:
Assay in all cases: relative viability (nuclei count vs DMSO), 5 days (fraction); higher = more cells survive
EMC-BAC-2 = tested on: EMC-BAC-2
Summary of the method: (§1)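 Cells from lung cancer lines were seeded into 1536-well plates and, one day later, dosed by pin tool. Treatments were either a single drug or a fixed dose of an anchor drug with five library-drug doses (not always all listed) in √10 steps. After 5 days, nuclei were stained in a one-step fixation (final 0.05% Triton X-100, 1% formaldehyde, 1 ug/ml Hoechst) and counted on 4× images, and relative viability is the treated-to-vehicle nuclei ratio, as the median of duplicate plates.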

EPLC-272H = tested on: EPLC-272H
Summary of the method: as §1

H3255 = tested on: H3255
Summary of the method: as §1

HOP-62 = tested on: HOP-62
Summary of the method: as §1

LCLC-97TM1 = tested on: LCLC-97TM1
Summary of the method: as §1

LXF-289 = tested on: LXF-289
Summary of the method: as §1

NCI-H1563 = tested on: NCI-H1563
Summary of the method: as §1

NCI-H1734 = tested on: NCI-H1734
Summary of the method: as §1

NCI-H1915 = tested on: NCI-H1915
Summary of the method: as §1

NCI-H1993 = tested on: NCI-H1993
Summary of the method: as §1

NCI-H2009 = tested on: NCI-H2009
Summary of the method: as §1

NCI-H2023 = tested on: NCI-H2023
Summary of the method: as §1

NCI-H2085 = tested on: NCI-H2085
Summary of the method: as §1

NCI-H2126 = tested on: NCI-H2126
Summary of the method: as §1

NCI-H2347 = tested on: NCI-H2347
Summary of the method: as §1

NCI-H322M = tested on: NCI-H322M
Summary of the method: as §1

NCI-H647 = tested on: NCI-H647
Summary of the method: as §1

NCI-H661 = tested on: NCI-H661
Summary of the method: as §1

NCI-H727 = tested on: NCI-H727
Summary of the method: as §1

PC-14 = tested on: PC-14
Summary of the method: as §1

SK-LU-1 = tested on: SK-LU-1
Summary of the method: as §1

SW 1573 = tested on: SW 1573
Summary of the method: as §1

In the case of `O=c1cc(N2CCOCC2)oc2c(-c3cccc4c3sc3ccccc34)cccc12` + CC(C)C[C@H](NC(=O)[C@H](Cc1ccccc1)NC(=O)c1cnccn1)B(O)O [Bortezomib] (partner 0.002 µM), the relative viability (EMC-BAC-2; first compound 0.01 µM) is reported as 1.06, the relative viability (EMC-BAC-2; first compound 0.03162 µM) is reported as 1.09 and the relative viability (EMC-BAC-2; first compound 0.1 µM) is reported as 1.15. For the same compound, the relative viability (EMC-BAC-2; first compound 0.3162 µM) was 1.11, the relative viability (EMC-BAC-2; first compound 1 µM) was 1.02 and the relative viability (EPLC-272H; first compound 0.01 µM) was 0.903. For the same compound, the relative viability (EPLC-272H; first compound 0.03162 µM) was 0.916, the relative viability (EPLC-272H; first compound 0.3162 µM) was 0.854 and the relative viability (EPLC-272H; first compound 1 µM) was 0.935. It also gave a relative viability (H3255; first compound 0.01 µM) of 0.696, a relative viability (H3255; first compound 0.03162 µM) of 0.806 and a relative viability (H3255; first compound 0.1 µM) of 0.761. The relative viability (H3255; first compound 0.3162 µM) was 0.854, the relative viability (H3255; first compound 1 µM) was 0.604 and the relative viability (HOP-62; first compound 0.01 µM) was 0.497. For the same compound, the relative viability (HOP-62; first compound 0.03162 µM) was 0.565, the relative viability (HOP-62; first compound 0.1 µM) was 0.963 and the relative viability (HOP-62; first compound 0.3162 µM) was 0.81. It also gave a relative viability (HOP-62; first compound 1 µM) of 0.723, a relative viability (LCLC-97TM1; first compound 0.01 µM) of 0.678 and a relative viability (LCLC-97TM1; first compound 0.03162 µM) of 0.535. For the same compound, the relative viability (LCLC-97TM1; first compound 0.1 µM) was 0.473, the relative viability (LCLC-97TM1; first compound 0.3162 µM) was 0.751 and the relative viability (LCLC-97TM1; first compound 1 µM) was 0.406. For the same compound, the relative viability (LXF-289; first compound 0.01 µM) was 1.01, the relative viability (LXF-289; first compound 0.03162 µM) was 0.967 and the relative viability (LXF-289; first compound 0.1 µM) was 1.1. For the same compound, the relative viability (LXF-289; first compound 0.3162 µM) was 1.03, the relative viability (LXF-289; first compound 1 µM) was 1.05 and the relative viability (NCI-H1563; first compound 0.01 µM) was 1. For the same compound, the relative viability (NCI-H1563; first compound 0.03162 µM) was 0.809, the relative viability (NCI-H1563; first compound 0.1 µM) was 0.9 and the relative viability (NCI-H1563; first compound 0.3162 µM) was 0.734. For the same compound, the relative viability (NCI-H1563; first compound 1 µM) was 0.762, the relative viability (NCI-H1734; first compound 0.01 µM) was 0.92 and the relative viability (NCI-H1734; first compound 0.03162 µM) was 0.808. The relative viability (NCI-H1734; first compound 0.1 µM) was 1.01, the relative viability (NCI-H1734; first compound 0.3162 µM) was 0.938 and the relative viability (NCI-H1734; first compound 1 µM) was 0.899. It also gave a relative viability (NCI-H1915; first compound 0.01 µM) of 0.994, a relative viability (NCI-H1915; first compound 0.03162 µM) of 1.01 and a relative viability (NCI-H1915; first compound 0.1 µM) of 0.867. The relative viability (NCI-H1915; first compound 0.3162 µM) was 0.94, the relative viability (NCI-H1915; first compound 1 µM) was 0.995 and the relative viability (NCI-H1993; first compound 0.01 µM) was 1. For the same compound, the relative viability (NCI-H1993; first compound 0.03162 µM) was 1.09, the relative viability (NCI-H1993; first compound 0.1 µM) was 1.33 and the relative viability (NCI-H1993; first compound 0.3162 µM) was 1.11. The relative viability (NCI-H1993; first compound 1 µM) was 1.07, the relative viability (NCI-H2009; first compound 0.01 µM) was 1.03 and the relative viability (NCI-H2009; first compound 0.03162 µM) was 1.01. For the same compound, the relative viability (NCI-H2009; first compound 0.1 µM) was 0.89, the relative viability (NCI-H2009; first compound 0.3162 µM) was 0.967 and the relative viability (NCI-H2009; first compound 1 µM) was 1.01. The relative viability (NCI-H2023; first compound 0.01 µM) was 1.04, the relative viability (NCI-H2023; first compound 0.03162 µM) was 1.02 and the relative viability (NCI-H2023; first compound 0.1 µM) was 1.05. The relative viability (NCI-H2023; first compound 0.3162 µM) was 0.936, the relative viability (NCI-H2023; first compound 1 µM) was 0.907 and the relative viability (NCI-H2085; first compound 0.01 µM) was 0.995. It also gave a relative viability (NCI-H2085; first compound 0.03162 µM) of 1.01, a relative viability (NCI-H2085; first compound 0.1 µM) of 1.03 and a relative viability (NCI-H2085; first compound 0.3162 µM) of 1.06. It also gave a relative viability (NCI-H2085; first compound 1 µM) of 0.967, a relative viability (NCI-H2126; first compound 0.01 µM) of 1.14 and a relative viability (NCI-H2126; first compound 0.03162 µM) of 1.11. It also gave a relative viability (NCI-H2126; first compound 0.1 µM) of 1.13, a relative viability (NCI-H2126; first compound 0.3162 µM) of 1.06 and a relative viability (NCI-H2126; first compound 1 µM) of 1.14. For the same compound, the relative viability (NCI-H2347; first compound 0.01 µM) was 1.15, the relative viability (NCI-H2347; first compound 0.03162 µM) was 1.12 and the relative viability (NCI-H2347; first compound 0.1 µM) was 0.838. It also gave a relative viability (NCI-H2347; first compound 0.3162 µM) of 0.835, a relative viability (NCI-H2347; first compound 1 µM) of 0.839 and a relative viability (NCI-H322M; first compound 0.01 µM) of 1.24. For the same compound, the relative viability (NCI-H322M; first compound 0.03162 µM) was 1.39, the relative viability (NCI-H322M; first compound 0.3162 µM) was 1.19 and the relative viability (NCI-H322M; first compound 1 µM) was 1.03. It also gave a relative viability (NCI-H647; first compound 0.01 µM) of 1.01, a relative viability (NCI-H647; first compound 0.03162 µM) of 1.1 and a relative viability (NCI-H647; first compound 0.1 µM) of 0.98. The relative viability (NCI-H647; first compound 0.3162 µM) was 1.02, the relative viability (NCI-H647; first compound 1 µM) was 0.924 and the relative viability (NCI-H661; first compound 0.01 µM) was 0.681. It also gave a relative viability (NCI-H661; first compound 0.03162 µM) of 0.89, a relative viability (NCI-H661; first compound 0.1 µM) of 0.752 and a relative viability (NCI-H661; first compound 0.3162 µM) of 0.714. It also gave a relative viability (NCI-H661; first compound 1 µM) of 0.756, a relative viability (NCI-H727; first compound 0.01 µM) of 0.961 and a relative viability (NCI-H727; first compound 0.03162 µM) of 0.937. The relative viability (NCI-H727; first compound 0.1 µM) was 0.764, the relative viability (NCI-H727; first compound 0.3162 µM) was 0.84 and the relative viability (NCI-H727; first compound 1 µM) was 0.79. For the same compound, the relative viability (PC-14; first compound 0.01 µM) was 0.954, the relative viability (PC-14; first compound 0.03162 µM) was 0.763 and the relative viability (PC-14; first compound 0.1 µM) was 0.868. The relative viability (PC-14; first compound 0.3162 µM) was 0.772, the relative viability (PC-14; first compound 1 µM) was 0.864 and the relative viability (SK-LU-1; first compound 0.01 µM) was 1.15. It also gave a relative viability (SK-LU-1; first compound 0.03162 µM) of 1.36, a relative viability (SK-LU-1; first compound 0.3162 µM) of 1.5 and a relative viability (SK-LU-1; first compound 1 µM) of 1.17. The relative viability (SW 1573; first compound 0.01 µM) was 1.32, the relative viability (SW 1573; first compound 0.03162 µM) was 0.985 and the relative viability (SW 1573; first compound 0.1 µM) was 1.07. For the same compound, the relative viability (SW 1573; first compound 0.3162 µM) was 1.12 and the relative viability (SW 1573; first compound 1 µM) was 0.952.
